# Measured values reported in publication PMC2913105 (British Journal of Pharmacology, 2010).
# How the values were obtained:
# [1] = tested on: P2Y receptors; experiment: Ca2+ signals; type: cell-based, rat; conditions: for Δ[Ca2+]i Peak: peak increase in [Ca2+]i, populations of cultured ASMC; for pEC50 Peak (with Ca2+): peak response in HBS; for pEC50 Ca2+ entry: sustained Ca2+ entry signal; for Δ[Ca2+]i Sustained: sustained increase measured between 250 and 300 s, cultured ASMC; for pEC50 Peak (Ca2+-free): peak response in Ca2+-free HBS
# [2] = tested on: Gi/o; type: cell-based, rat
# [3] = ref Abbracchio et al., 2006; cited from earlier work
# [4] = tested on: phospholipase C; type: cell-based, rat
# [5] = tested on: P2X1 and P2X3 receptors; conditions: not shown
# [6] = biological target: T1, P2Y14 receptors (Rattus norvegicus, UniProt O35881); type: cell-based; conditions: agonist 10 µM; not shown
# T1 sequence (O35881 1-305): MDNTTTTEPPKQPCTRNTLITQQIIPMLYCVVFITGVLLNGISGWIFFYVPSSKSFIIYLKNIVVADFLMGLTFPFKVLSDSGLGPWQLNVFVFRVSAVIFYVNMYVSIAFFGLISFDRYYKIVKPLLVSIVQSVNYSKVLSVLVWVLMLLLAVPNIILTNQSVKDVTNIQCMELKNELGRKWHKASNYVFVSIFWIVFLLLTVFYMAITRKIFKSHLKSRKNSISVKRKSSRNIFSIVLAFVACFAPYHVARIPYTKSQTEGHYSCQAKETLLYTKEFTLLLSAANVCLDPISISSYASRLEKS
Compound,Δ[Ca2+]i Peak [1] [nM],pEC50 Peak (with Ca2+) [1],pEC50 Ca2+ entry [1],Δ[Ca2+]i Sustained [1] [nM],other results
"CSc1nc(N)c2ncn([C@@H]3O[C@H](COP(=O)(O)OP(=O)(O)O)[C@@H](O)[C@H]3O)c2n1 [2-MeSADP, 2-methylthio-adenosine-5′-diphosphate]",122 ± 30,7.23 ± 0.53,5.58 ± 0.16,18 ± 4,–
"O=c1ccn([C@@H]2O[C@H](COP(=O)(O)OP(=O)(O)OP(=O)(O)O)[C@@H](O)[C@H]2O)c(=S)[nH]1 [2-thio-UTP, 2-thio-uridine-5′-triphosphate]",327 ± 42,5.89 ± 0.29,–,88 ± 26,–
"N[C@@H]1[C@H](O)[C@@H](COP(=O)(O)OP(=O)(O)OP(=O)(O)O)O[C@H]1n1ccc(=O)[nH]c1=O [2′-amino-UTP, 2′-amino-2′-deoxyuridine-5′-triphosphate]",301 ± 34,5.58 ± 0.37,5.40 ± 0.23,84 ± 36,–
"[N-]=[N+]=N[C@@H]1[C@H](O)[C@@H](COP(=O)(O)OP(=O)(O)OP(=O)(O)O)O[C@H]1n1ccc(=O)[nH]c1=O [2′-azido-UTP, 2′-azido-2′-deoxyuridine-5′-triphosphate]",142 ± 29,4.67 ± 0.32,4.67 ± 0.06,55 ± 20,–
Nc1ncnc2c1ncn2[C@@H]1O[C@H](COP(=O)(O)OP(=O)(O)OP(=O)(O)O)[C@@H](O)[C@H]1O [ATP],248 ± 48,5.83 ± 0.03,5.01 ± 0.13,64 ± 20,"pEC50 of ATP, peak Ca2+ signal, after Pertussis toxin [2]: 5.30 ± 0.08; pEC50 of ATP, peak Ca2+ signal, without Pertussis toxin ([2]; paired control): 5.63 ± 0.09; pEC50 Peak (Ca2+-free) [1]: 5.95 ± 0.10"
"CSc1nc(N)c2ncn([C@H]3[C@H](O)[C@H](O)[C@]4(COP(=O)(O)OP(=O)(O)O)C[C@H]34)c2n1 [MRS2365, (N)-methanocarba-2-MeSADP]",154 ± 5,8.68 ± 0.16,8.11 ± 0.32,18 ± 7,pEC50 Peak (Ca2+-free) [1]: 8.56 ± 0.06
"S=C=Nc1cccc(NC(=S)NCCCCNC(=S)Nc2cccc(N=C=S)c2)c1 [MRS2578, N,N″-1,4-butanediylbis [N′-(3-isothiocyanatophenyl)thio] urea]",–,–,–,–,Solubility in aqueous solution [3]: sparingly soluble; Stability in aqueous solution [3]: unstable
"COc1ccc2c(c1)CC[C@@H]1[C@@H]2CC[C@]2(C)[C@@H](NCCCCCCN3C(=O)C=CC3=O)CC[C@@H]12 [U73122, 1-[6-[[(17β)-3-methoxyestra-1,3,5 (10)-trien-17-yl]amino]hexyl]-1H-pyrrole-2,5-dione]",–,–,–,–,"pIC50 for inhibition of Ca2+ signals evoked by ATP ([4]; ATP 100 µM, inhibitor added 5 min before and during stimulation): 5.78 ± 0.07; Effect on Ca2+ responses to UTP and UDP ([4]; not shown): abolished"
"COc1ccc2c(c1)CC[C@@H]1[C@@H]2CC[C@]2(C)[C@@H](NCCCCCCN3C(=O)CCC3=O)CC[C@@H]12 [U73343, 1-[6-[((17β)-3-methoxyestra-1,3,5 (10)-trien-17-yl)amino]hexyl]-2,5-pyrrolidinedione]",–,–,–,–,"Effect on Ca2+ signals evoked by ATP ([4]; ATP 100 µM, inactive analogue of U73122): no effect"
O=c1ccn([C@@H]2O[C@H](COP(=O)(O)OP(=O)(O)O)[C@@H](O)[C@H]2O)c(=O)[nH]1 [UDP],94 ± 20,6.45 ± 0.45,6.83 ± 0.35,25 ± 6,pEC50 Peak (Ca2+-free) [1]: 6.16 ± 0.43
O=c1ccn([C@@H]2O[C@H](COP(=O)(O)OP(=O)(O)OP(=O)(O)O)[C@@H](O)[C@H]2O)c(=O)[nH]1 [UTP],254 ± 47,5.23 ± 0.22,4.64 ± 0.32,67 ± 5,pEC50 Peak (Ca2+-free) [1]: 5.39 ± 0.15
"Nc1ncnc2c1ncn2C1OC(COP(=O)(O)CP(=O)(O)OP(=O)(O)O)C(O)C1O (stereo not drawn) [αβ-meATP, αβ-methylene-adenosine-5′-triphosphate]",–,–,–,–,Ca2+ response in cultured ASMC [5]: no response
Pertussis toxin,–,–,–,–,"Effect on responses to UDP ([2]; Pertussis toxin 100 ng·mL−1, 24 h): unaffected"
diphosphoric acid 1-α-D-glucopyranosyl ester 2-[(4′-methylthio)uridin-5″-yl] ester [MRS2690],–,–,–,–,Ca2+ signals evoked in cultured ASMC [6]: Neither MRS2690 (10 µM) nor UDP-glucose (10 µM) evoked Ca^2+ signals
